The record followed here is article PMC4424350, “Unraveling the Specific Regulation of the Central Pathway for Anaerobic Degradation of 3-Methylbenzoate” (The Journal of Biological Chemistry, 2015).

Each structure is given as a SMILES string.

This assay addresses T1, MbdR (MbdR-His6) (Azoarcus sp., UniProt Z9KMW0QJC7).
T1 construct: full-length, C-terminal His6 (pETmbdR), expressed in E. coli BL21(DE3), Ni-NTA; dimer in solution
Kind of assay: gel retardation (release of promoter DNA); DNase I footprinting; in vitro transcription. The following applies: inducer; 30 nM MbdR-His6 with PO or PB1 DNA probe, 20 mM Tris-HCl pH 7.5, 50 mM KCl, 30 °C. It counts as binding.

In the case of `Cc1cccc(C(=O)SCCNC(=O)CCNC(=O)[C@H](O)C(C)(C)COP(=O)(O)OP(=O)(O)OC[C@H]2O[C@@H](n3cnc4c(N)ncnc43)[C@H](O)[C@@H]2OP(=O)(O)O)c1` [3-methylbenzoyl-CoA], the “gel retardation (release of promoter DNA); DNase I footprinting; in vitro transc” value was 3-methylbenzoyl-CoA inhibited the interaction of MbdR with the PO and PB1 probes.
